Results taken from patent publication US7705038B2, “Control of parasites in animals by the use of parasiticidal 2-phenyl-3-(1H-pyrrol-2-yl)acrylonitrile derivatives” (Intervet, Inc., priority 2004, dated 2010).

Experiments:
Haemonchus contortus = assay: Activity against Haemonchus contortus (LD99); conditions: dose required to kill 99% of the sample of Haemonchus contortus
From the text: (§1) Exemplified compounds of Formula 1 are listed by Tables 1a and 1b, above. The activity of these compounds against Haemonchus contortus and cat fleas (Ctenocephalides felis) is summarized by Table 7, below.
The LD99 value is the dose, expressed as μg/ml, that was required to kill 99% of the sample of Haemonchus contortus.

[1] = system: cat fleas (Ctenocephalides felis); assay: Contact activity against cat fleas (LC50, % kill); conditions: for % Kill: percent of a sample of cat fleas killed at a concentration of 1.26 μg/cm^2; for LC50: concentration required to kill 50% of the sample of cat fleas on contact; for pest or weed control at 1.26 µg/cm2, 1.26 µg/cm2: Ctenocephalides felis, read-out: % Kill
From the text: as §1

Row | Structure (SMILES) | LD99 (Haemonchus contortus) | % Kill [1] [%] | LC50 [1] [μg/cm^2] | EC99 (Haemonchus contortus) [µg/mL] | pest or weed control at 1.26 µg/cm2, 1.26 µg/cm2 [1] [%]
1 | N#C/C(=C\c1ccc[nH]1)c1ccccc1 [Compound 35] | — (the symbol ‘—’ indicates tested but inactive up to 15 μg/ml) | 21 |  |  | 
2 | COC(=O)n1cccc1/C=C(\C#N)c1ccc(Cl)cc1 [Compound 85] | 1.25 µg/mL | 16 |  |  | 
3 | N#C/C(=C\c1ccc[nH]1)c1ccccc1-c1ccccc1 [Compound 89] |  | 2 |  |  | 
4 | N#C/C(=C\c1ccc[nH]1)c1cc(C(F)(F)F)cc(C(F)(F)F)c1 [Compound 68] | — (the symbol ‘—’ indicates tested but inactive up to 15 μg/ml) | 27 |  |  | 
5 | Cn1cccc1/C=C(\C#N)c1ccc(C(F)(F)F)cc1 [Compound 21] | — (the symbol ‘—’ indicates tested but inactive up to 15 μg/ml) | 24 |  |  | 
6 | CCOCn1cccc1/C=C(\C#N)c1c(F)cccc1F [Compound 61] | — (the symbol ‘—’ indicates tested but inactive up to 15 μg/ml) |  |  |  | 
7 | CC(C)(C)c1ccc(/C(C#N)=C/c2ccc[nH]2)cc1 [Compound 15] | 3.25 µg/mL | 87 | 0.478 |  | 
8 | N#C/C(=C\c1ccc[nH]1)c1ccccc1C(F)(F)F [Compound 90] |  | 14 |  |  | 
9 | CCOCn1cccc1/C=C(\C#N)c1ccccc1F [Compound 55] | — (the symbol ‘—’ indicates tested but inactive up to 15 μg/ml) | 10 |  |  | 
10 | CCOCn1cccc1/C=C(\C#N)c1ccc(Br)cc1 [Compound 51] | 7.5 µg/mL |  |  |  | 
11 | Cn1cccc1/C=C(\C#N)c1ccc(Cl)cc1 [Compound 6, (Z)-2-(4-Chloro-phenyl)-3-(1-methyl-1H-pyrrol-2-yl)acrylonitrile] |  |  |  | 1.88 | 13
12 | N#C/C(=C\c1ccc[nH]1)c1ccc(I)cc1 [Compound 36] | 0.688 µg/mL | 14 |  |  | 
13 | CCOCn1cccc1/C=C(\C#N)c1ccc(C)cc1 [Compound 64] | — (the symbol ‘—’ indicates tested but inactive up to 15 μg/ml) | 20 |  |  | 
14 | N#C/C(=C\c1cc(Br)c[nH]1)c1cccc(F)c1 [Compound 31] | 1.75 µg/mL | 27 |  |  | 
15 | N#C/C(=C\c1ccc[nH]1)c1ccc(Cl)cc1 [Compound 2, (Z)-2-(4-Chloro-phenyl)-3-(1H-pyrrol-2-yl)acrylonitrile] |  |  | 0.17 | 0.406 | 95
16 | N#C/C(=C\c1cc(Cl)c(Cl)[nH]1)c1ccc(Cl)cc1 [Compound 3] | 3 µg/mL | 15 |  |  | 
17 | CCOCn1cccc1/C=C(\C#N)c1ccc(F)cc1F [Compound 60] | — (the symbol ‘—’ indicates tested but inactive up to 15 μg/ml) | 19 |  |  | 
18 | CCOCn1cccc1/C=C(\C#N)c1cccc2ccccc12 [Compound 65, 2-(1-naphthyl)-3-(1-ethoxymethyl-1H-pyrrol-2-yl)acrylonitrile] |  |  |  | > 15 | 
19 | N#C/C(=C\c1ccc[nH]1)c1ccc(F)cc1 [Compound 28] | 2.5 µg/mL | 19 | 0.295 |  | 
20 | N#C/C(=C\c1ccc[nH]1)c1ccc2ccccc2c1 [Compound 66, 2-(2-naphthyl)-3-(1H-pyrrol-2-yl)acrylonitrile] |  |  |  | 2.5 | 28
21 | N#C/C(=C\c1cc(Br)c[nH]1)c1ccc(Cl)cc1 [Compound 23] | 0.469 µg/mL | 23 |  |  | 
22 | N#C/C(=C\c1ccc[nH]1)c1ccc(Cl)cc1Cl [Compound 13] | 3 µg/mL | 8 |  |  | 

Row | Structure (SMILES) | LD99 (Haemonchus contortus) | % Kill [1] [%] | LC50 [1] [μg/cm^2] | EC99 (Haemonchus contortus) [µg/mL] | pest or weed control at 1.26 µg/cm2, 1.26 µg/cm2 [1] [%]
23 | N#C/C(=C\c1ccc[nH]1)c1ccc([N+](=O)[O-])cc1 [Compound 40] | — (the symbol ‘—’ indicates tested but inactive up to 15 μg/ml) | 6 |  |  | 
24 | N#C/C(=C\c1cccn1C(=O)c1ccccc1)c1ccc(Cl)cc1 [Compound 82] | 1.25 µg/mL | 6 |  |  | 
25 | N#CC(=Cc1cc(Br)c[nH]1)c1cccc2ccccc12 [Compound 34, 2-(1-naphthyl)-3-(4-bromo-1H-pyrrol-2-yl)acrylonitrile] |  |  |  | 0.813 | 21
26 | N#C/C(=C\c1ccc[nH]1)c1ccccc1Br [Compound 38] | 3.25 µg/mL | 30 |  |  | 
27 | CCOCn1cccc1/C=C(\C#N)c1ccc2ccccc2c1 [Compound 53, 2-(2-naphthyl)-3-(1-ethoxymethyl-1H-pyrrol-2-yl)acrylonitrile] |  |  |  | > 15 | 
28 | COc1ccccc1/C(C#N)=C/c1ccc[nH]1 [Compound 91] |  | 9 |  |  | 
29 | N#C/C(=C\c1ccc[nH]1)c1ccccc1F [Compound 25] | 2.5 µg/mL | 92 | 0.594 |  | 
30 | Cc1ccc(/C(C#N)=C/c2ccc[nH]2)c(C)c1 [Compound 88] | — (the symbol ‘—’ indicates tested but inactive up to 15 μg/ml) | 44 |  |  | 
31 | N#C/C(=C\c1ccc[nH]1)c1ccc(C#N)cc1 [Compound 20] | 10 µg/mL | 44 |  |  | 
32 | CN(C)C(=S)n1cccc1/C=C(\C#N)c1ccc(Cl)cc1 [Compound 84] | 10 µg/mL | 19 |  |  | 
33 | N#C/C(=C\c1ccc[nH]1)c1c(F)cccc1F [Compound 70] | 7.5 µg/mL | 17 |  |  | 
34 | N#C/C(=C\c1ccc[nH]1)c1ccc(F)c(Br)c1 [Compound 73] | 0.469 µg/mL | 7 |  |  | 
35 | CCOCn1cccc1/C=C(\C#N)c1ccc(Cl)cc1 [Compound 7, (Z)-2-(4-Chloro-phenyl)-3-(1-ethoxymethyl-1H-pyrrol-2-yl)acrylonitrile] |  |  |  | 5.5 | 6
36 | N#C/C(=C\c1ccc[nH]1)c1cccc(Oc2ccccc2)c1 [Compound 71] | 3.25 µg/mL | 10 |  |  | 
37 | N#C/C(=C\c1ccc[nH]1)c1ccc(Cl)cc1F [Compound 48] | 2.5 µg/mL | 5 |  |  | 
38 | N#C/C(=C\c1ccc[nH]1)c1ccccc1 [Compound 17] | 0.469 µg/mL | 98 | 0.259 |  | 
39 | N#C/C(=C\c1cc(Br)c[nH]1)c1ccc(F)cc1 [Compound 30] | 11 µg/mL | 18 |  |  | 
40 | CCOCn1cccc1/C=C(\C#N)c1ccccc1C(F)(F)F [Compound 57] | — (the symbol ‘—’ indicates tested but inactive up to 15 μg/ml) |  |  |  | 
41 | N#C/C(=C\c1ccc[nH]1)c1ccc(Br)cc1 [Compound 33] | 3 µg/mL | 15 |  |  | 
42 | CCOCn1cccc1/C=C(\C#N)c1cc(C(F)(F)F)cc(C(F)(F)F)c1 [Compound 59] | — (the symbol ‘—’ indicates tested but inactive up to 15 μg/ml) |  |  |  | 
43 | N#C/C(=C\c1ccc[nH]1)c1ccc2c(c1)OCO2 [Compound 19, 2-(3,4-methylenedioxy)phenyl-3-(1H-pyrrol-2-yl)acrylonitrile] |  |  |  | 6 | 26
44 | N#C/C(=C\c1ccc[nH]1)c1ccc(Cl)c(Cl)c1 [Compound 27] | 0.406 µg/mL | 78 |  |  | 

Row | Structure (SMILES) | LD99 (Haemonchus contortus) | % Kill [1] [%] | LC50 [1] [μg/cm^2] | EC99 (Haemonchus contortus) [µg/mL] | pest or weed control at 1.26 µg/cm2, 1.26 µg/cm2 [1] [%]
45 | N#C/C(=C\c1ccc[nH]1)c1ccc(F)cc1F [Compound 69] | 2.5 µg/mL | 5 |  |  | 
46 | N#C/C(=C\c1cccn1Cc1ccccc1)c1ccc(Cl)cc1 [Compound 77] | 14 µg/mL | 3 |  |  | 
47 | N#C/C(=C\c1ccc[nH]1)c1ccc(C(F)(F)F)cc1 [Compound 4] | 0.625 µg/mL | 20 |  |  | 
48 | N#C/C(=C\c1ccc[nH]1)c1cccc(C(F)(F)F)c1 [Compound 9] | 0.938 µg/mL | 56 | 9.94 |  | 
49 | CCOCn1cccc1/C=C(\C#N)c1ccc(Cl)c(Cl)c1 [Compound 56] | 6.5 µg/mL |  |  |  | 
50 | N#C/C(=C\c1ccc[nH]1)c1ccc(F)cc1Cl [Compound 74] | 3 µg/mL | 30 |  |  | 
51 | Cc1cccc(/C(C#N)=C/c2ccc[nH]2)c1 [Compound 72] | 1.25 µg/mL | 42 |  |  | 
52 | N#C/C(=C\c1ccc[nH]1)c1ccccc1Cl [Compound 24] | 2.75 µg/mL | 19 |  |  | 
53 | N#C/C(=C\c1ccc[nH]1)c1ccc(F)c(Cl)c1 [Compound 81] | 1.25 µg/mL | 5 |  |  | 
54 | Cc1ccc(S(=O)(=O)n2cccc2/C=C(\C#N)c2ccc(Cl)cc2)cc1 [Compound 83] | 12 µg/mL |  |  |  | 
55 | COc1ccc(/C(C#N)=C/c2ccc[nH]2)cc1 [Compound 14] | 1.5 µg/mL | 31 |  |  | 
56 | CCN(CC)C(=O)n1cccc1/C=C(\C#N)c1ccc(Cl)cc1 [Compound 78] | 3.5 µg/mL | 8 |  |  | 
57 | CCOCn1cccc1/C=C(\C#N)c1ccccc1C#N [Compound 50] | — (the symbol ‘—’ indicates tested but inactive up to 15 μg/ml) |  |  |  | 
58 | CCOCn1cccc1/C=C(\C#N)c1ccccc1Cl [Compound 54] | 7 µg/mL |  |  |  | 
59 | CCOCn1cccc1/C=C(\C#N)c1c(Cl)cccc1Cl [Compound 52] | — (the symbol ‘—’ indicates tested but inactive up to 15 μg/ml) |  |  |  | 
60 | CCOCn1cccc1/C=C(\C#N)c1cccc(Br)c1 [Compound 58] | — (the symbol ‘—’ indicates tested but inactive up to 15 μg/ml) |  |  |  | 
61 | CC(C)=CCn1cccc1/C=C(\C#N)c1ccc(Cl)cc1 [Compound 80, (Z)-2-(4-chlorophenyl)-3-(1-(3-methylbut-2-enyl)-1H-pyrrol-2-yl)acrylonitrile] |  |  |  | > 15 | 
62 | CCOCn1cccc1/C=C(\C#N)c1ccc(F)cc1 [Compound 49] | 14 µg/mL |  |  |  | 
63 | N#C/C(=C\c1cc(Br)c[nH]1)c1cccc(C(F)(F)F)c1 [Compound 12] | 3.25 µg/mL |  |  |  | 
64 | CCOCn1cccc1/C=C(\C#N)c1cccc(C)c1 [Compound 63] | 13 µg/mL |  |  |  | 
65 | CCOCn1cccc1/C=C(\C#N)c1ccc(F)c(F)c1 [Compound 62] | 6 µg/mL |  |  |  | 
